According to ChEMBL document CHEMBL3124779, “Discovery of ABT-267, a pan-genotypic inhibitor of HCV NS5A” (J Med Chem, 2014):
In brackets after ≈: the same amount, converted by molar mass.

Assays:
[1] = Kinetic solubility of the compound in 10 mM of phosphate buffer at pH 7.2 by CLND method; assay type: physicochemical; conditions: read-out: Kinetic_solubility
[2] = Half life in HCV1 infected patient at 5 to 200 mg qd for 3 days; assay type: ADME, organism-based; conditions: human, in vivo
[3] = Half life in monkey at 2.5 mg/kg, po; assay type: ADME, organism-based, Macaca mulatta; design: dose 2.5 mg/kg, route oral; conditions: rhesus monkey, in vivo
Homo sapiens [4] = organism: Homo sapiens; assay: Toxicity in HCV1 infected patient assessed as laboratory abnormalities at 5 to 200 mg qd for 3 days; assay type: organism-based; conditions: in vivo, 72 h
Hepatitis C virus [5] = assay: Resistant ratio of EC50 for wild type HCV1a to EC50 for HCV1a harboring NS5A Y93C mutant infected in human HuH7 cells; assay type: functional, Hepacivirus hominis, subtype 1a, Huh-7
Hepatitis C virus [6] = assay: Resistant ratio of EC50 for wild type HCV1a to EC50 for HCV1a harboring NS5A M28V mutant infected in human HuH7 cells; assay type: functional, Hepacivirus hominis, subtype 1a, Huh-7
Hepatitis C virus [7] = assay: Antiviral activity against HCV1a H77 infected in human HuH7 cells assessed as inhibition of viral replication after 4 days by luciferase reporter gene assay in presence of 40% human plasma; assay type: functional, organism-based, Hepacivirus hominis; conditions: genotype 1a H77, Huh-7, Plasma, 96 h
Hepatitis C virus [8] = assay: Antiviral activity against HCV1b harboring NS5A R30Q and Y93H mutant infected in human HuH7 cells assessed as inhibition of viral replication after 4 days by luciferase reporter gene assay; assay type: functional, Hepacivirus hominis, genotype 1b, Huh-7
[9] = AUC in dog at 2.5 mg/kg, po; assay type: ADME, organism-based, Canis lupus familiaris; design: dose 2.5 mg/kg, route oral; conditions: plasma
Hepatitis C virus [10] = assay: Resistant ratio of EC50 for wild type HCV1a to EC50 for HCV1a harboring NS5A Q30R mutant infected in human HuH7 cells; assay type: functional, Hepacivirus hominis, subtype 1a, Huh-7
Hepatitis C virus [11] = assay: Resistant ratio of EC50 for wild type HCV1a to EC50 for HCV1a harboring NS5A Y93N mutant infected in human HuH7 cells; assay type: functional, Hepacivirus hominis, subtype 1a, Huh-7
Hepatitis C virus [12] = assay: Antiviral activity against HCV1b harboring NS5A Y93H mutant infected in human HuH7 cells assessed as inhibition of viral replication after 4 days by luciferase reporter gene assay; assay type: functional, Hepacivirus hominis, genotype 1b, Huh-7
[13] = Volume of distribution at steady state in monkey at 1 mg/kg, iv; assay type: ADME, organism-based, Macaca mulatta; design: dose 1 mg/kg, route intravenous; conditions: rhesus monkey, in vivo, read-out: Vdss
Hepatitis C virus [14] = assay: Antiviral activity against HCV3a infected in human HuH7 cells assessed as inhibition of viral replication after 4 days by luciferase reporter gene assay; assay type: functional, organism-based, Hepacivirus hominis; conditions: genotype 3a, Huh-7, 96 h
Hepatitis C virus [15] = assay: Antiviral activity against HCV1a harboring NS5A M28V mutant infected in human HuH7 cells assessed as inhibition of viral replication after 4 days by luciferase reporter gene assay; assay type: functional, Hepacivirus hominis, subtype 1a, Huh-7
Hepatitis C virus [16] = assay: Resistant ratio of EC50 for wild type HCV1b to EC50 for HCV1b harboring NS5A L28T mutant infected in human HuH7 cells; assay type: functional, Hepacivirus hominis, genotype 1b, Huh-7
Hepatitis C virus [17] = assay: Ratio of EC50 for HCV1a H77 infected in human HuH7 cells in presence of 40% human plasma to EC50 for HCV1a H77 infected in human HuH7 cells in absence of 40% human plasma; assay type: functional, Hepacivirus hominis, genotype 1a H77, Huh-7
[18] = Cmax in monkey at 2.5 mg/kg, po; assay type: ADME, organism-based, Macaca mulatta; design: dose 2.5 mg/kg, route oral; conditions: rhesus monkey, in vivo
[19] = Tmax in dog at 2.5 mg/kg, po; assay type: ADME, organism-based, Canis lupus familiaris; design: dose 2.5 mg/kg, route oral; conditions: in vivo
[20] = Oral bioavailability in dog at 2.5 mg/kg; assay type: ADME, organism-based, Canis lupus familiaris; conditions: in vivo
Hepatitis C virus [21] = assay: Antiviral activity against HCV1b Con1 infected in human HuH7 cells assessed as inhibition of viral replication after 4 days by luciferase reporter gene assay; assay type: functional, organism-based, Hepacivirus hominis; conditions: isolate Con1, Huh-7, 96 h
Hepatitis C virus [22] = assay: Antiviral activity in HCV1 infected in human assessed as log reduction of viral RNA at 5 to 200 mg qd for 3 days relative to control; assay type: functional, Hepacivirus hominis, genotype 1
Hepatitis C virus [23] = assay: Antiviral activity against HCV1b Con1 infected in human HuH7 cells assessed as inhibition of viral replication after 4 days by luciferase reporter gene assay in presence of 40% human plasma; assay type: functional, organism-based, Hepacivirus hominis; conditions: isolate Con1, Huh-7, Plasma, 96 h
Hepatitis C virus [24] = assay: Resistant ratio of EC50 for wild type HCV1b to EC50 for HCV1b harboring NS5A L31F and Y93H mutant infected in human HuH7 cells; assay type: functional, Hepacivirus hominis, genotype 1b, Huh-7
Hepatitis C virus [25] = assay: Resistant ratio of EC50 for wild type HCV1b to EC50 for HCV1b harboring NS5A L31V and Y93H mutant infected in human HuH7 cells; assay type: functional, Hepacivirus hominis, genotype 1b, Huh-7
Hepatitis C virus [26] = assay: Antiviral activity against HCV1a harboring NS5A H58D mutant infected in human HuH7 cells assessed as inhibition of viral replication after 4 days by luciferase reporter gene assay; assay type: functional, Hepacivirus hominis, subtype 1a, Huh-7
[27] = Half life in rat at 3 mg/kg, po; assay type: ADME, organism-based; design: dose 3 mg/kg, route oral; conditions: in vivo
Hepatitis C virus [28] = assay: Antiviral activity against HCV1a H77 infected in human HuH7 cells assessed as inhibition of viral replication after 4 days by luciferase reporter gene assay; assay type: functional, organism-based, Hepacivirus hominis; conditions: genotype 1a H77, Huh-7, 96 h
Homo sapiens [29] = organism: Homo sapiens; assay: Toxicity in HCV1 infected patient assessed as mortality at 5 to 200 mg qd for 3 days; assay type: organism-based; conditions: in vivo, 72 h
[30] = Clearance in rat at 3 mg/kg, iv; assay type: ADME, organism-based; design: dose 3 mg/kg, route intravenous; conditions: in vivo

Question: With `COC(=O)N[C@H](C(=O)N1CCC[C@H]1C(=O)Nc1ccc([C@@H]2CC[C@@H](c3ccc(NC(=O)[C@@H]4CCCN4C(=O)[C@@H](NC(=O)OC)C(C)C)cc3)N2c2ccc(C(C)(C)C)cc2)cc1)C(C)C` [OMBITASVIR] as the compound, how does the solubility kinetic [1] read?
Answer: 2.7 µM (≈ 2.41 µg/mL)

Question: What about the half-life [2] of the same compound?
Answer: 25 h

Question: What about the half-life [3] of the same compound?
Answer: 5 h

Question: What about the Activity (Homo sapiens [4]) of the same compound?
Answer: Non-toxic

Question: What about the “Ratio EC50” value (Hepatitis C virus [5]) of the same compound?
Answer: 1675

Question: What about the “Ratio EC50” value (Hepatitis C virus [6]) of the same compound?
Answer: 58

Question: And the EC50 (Hepatitis C virus [7])?
Answer: 0.186 nM

Question: What about the Efficacy (Hepatitis C virus [8]) of the same compound?
Answer: 60%

Question: What about the AUC [9] of the same compound?
Answer: 8000 ng·h/mL

Question: And the “Ratio EC50” value (Hepatitis C virus [10])?
Answer: 800

Question: And the “Ratio EC50” value (Hepatitis C virus [11])?
Answer: 66739

Question: And the Efficacy (Hepatitis C virus [12])?
Answer: 73%

Question: And the Vd [13]?
Answer: 1.5 L/kg

Question: And the EC50 (Hepatitis C virus [14])?
Answer: 0.0193 nM

Question: And the Efficacy (Hepatitis C virus [15])?
Answer: 87%

Question: And the “Ratio EC50” value (Hepatitis C virus [16])?
Answer: 661

Question: And the “Ratio EC50” value (Hepatitis C virus [17])?
Answer: 13

Question: And the Cmax [18]?
Answer: 290 ng/mL

Question: And the Tmax [19]?
Answer: 3.3 h

Question: What about the bioavailability [20] of the same compound?
Answer: 57%

Question: What about the EC50 (Hepatitis C virus [21]) of the same compound?
Answer: 0.005 nM

Question: What about the Activity (Hepatitis C virus [22]) of the same compound?
Answer: <=3.1 log10IU/ml

Question: What about the EC50 (Hepatitis C virus [23]) of the same compound?
Answer: 0.056 nM

Question: What about the “Ratio EC50” value (Hepatitis C virus [24]) of the same compound?
Answer: 10270

Question: And the “Ratio EC50” value (Hepatitis C virus [25])?
Answer: 12323

Question: What about the Efficacy (Hepatitis C virus [26]) of the same compound?
Answer: 66%

Question: And the half-life [27]?
Answer: 15.9 h

Question: And the EC50 (Hepatitis C virus [28])?
Answer: 0.014 nM

Question: What about the Activity (Homo sapiens [29]) of the same compound?
Answer: Non-toxic

Question: What about the clearance [30] of the same compound?
Answer: 10.8 mL/min/kg
